Assay results published in PMC12079613 (Journal of medicinal chemistry, 2019).
pKi: −log10 of the molar value.

Legend:
[1] = target: T1, D3R (Homo sapiens, UniProt P35462); experiment: Radioligand binding, [125I]IABN, HEK cells expressing human D3; conditions: for D2/D3 ratio: (Ki for D2 receptors)/(Ki for D3 receptors)
[2] = target: human D2 (long) (Homo sapiens, UniProt P14416); experiment: Radioligand binding, [125I]IABN, HEK cells expressing human D2; conditions: human D2 in HEK cells, mean ± SEM, at least three experiments
Sequence of human D2 (long) (P14416 whole entry): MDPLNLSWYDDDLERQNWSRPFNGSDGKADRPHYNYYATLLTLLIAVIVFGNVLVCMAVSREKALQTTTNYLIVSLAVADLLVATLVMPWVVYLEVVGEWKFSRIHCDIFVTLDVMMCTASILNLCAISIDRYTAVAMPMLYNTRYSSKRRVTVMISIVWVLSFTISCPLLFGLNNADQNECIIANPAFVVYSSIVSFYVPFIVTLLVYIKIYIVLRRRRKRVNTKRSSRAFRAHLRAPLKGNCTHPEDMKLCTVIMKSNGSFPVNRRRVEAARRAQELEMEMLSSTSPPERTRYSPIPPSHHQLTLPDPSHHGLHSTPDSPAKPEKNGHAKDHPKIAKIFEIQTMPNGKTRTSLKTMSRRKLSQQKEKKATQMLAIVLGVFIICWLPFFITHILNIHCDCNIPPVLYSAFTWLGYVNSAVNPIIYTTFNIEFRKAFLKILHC

[3] = target: α2β4 (Rattus norvegicus, UniProt P12389+P12392); experiment: PDSP binding, α2β4; conditions: read-out: inhibition in primary assay at 10 μM
Sequence of α2β4 (P12389 28-511): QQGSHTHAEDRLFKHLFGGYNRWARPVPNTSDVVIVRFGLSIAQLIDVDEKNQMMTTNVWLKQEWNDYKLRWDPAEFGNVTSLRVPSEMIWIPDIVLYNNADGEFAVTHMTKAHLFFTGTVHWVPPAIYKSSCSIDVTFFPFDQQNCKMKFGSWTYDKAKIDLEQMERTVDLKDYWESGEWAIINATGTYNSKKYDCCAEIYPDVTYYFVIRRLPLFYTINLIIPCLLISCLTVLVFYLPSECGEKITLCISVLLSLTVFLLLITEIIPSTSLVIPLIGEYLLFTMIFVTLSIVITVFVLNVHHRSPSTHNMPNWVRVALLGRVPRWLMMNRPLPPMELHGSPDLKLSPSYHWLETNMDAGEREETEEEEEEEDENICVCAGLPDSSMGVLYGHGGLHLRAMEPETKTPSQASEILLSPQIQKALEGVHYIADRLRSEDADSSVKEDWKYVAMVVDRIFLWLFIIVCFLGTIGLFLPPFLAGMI
Sequence of α2β4 (P12392 21-495): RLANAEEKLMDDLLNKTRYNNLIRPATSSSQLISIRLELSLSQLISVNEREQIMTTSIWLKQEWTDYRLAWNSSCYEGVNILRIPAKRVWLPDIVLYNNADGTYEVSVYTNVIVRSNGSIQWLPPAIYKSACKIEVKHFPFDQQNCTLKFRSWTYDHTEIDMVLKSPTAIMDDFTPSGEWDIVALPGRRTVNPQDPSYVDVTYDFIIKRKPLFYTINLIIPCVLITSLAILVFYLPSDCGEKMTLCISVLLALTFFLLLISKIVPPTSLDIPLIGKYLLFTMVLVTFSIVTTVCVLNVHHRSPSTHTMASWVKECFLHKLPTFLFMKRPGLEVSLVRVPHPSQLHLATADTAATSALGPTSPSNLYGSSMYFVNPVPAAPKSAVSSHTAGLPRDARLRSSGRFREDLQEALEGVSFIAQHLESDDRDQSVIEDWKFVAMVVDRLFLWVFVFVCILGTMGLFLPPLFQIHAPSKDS

[4] = target: α3β2 (Rattus norvegicus, UniProt P04757+P12390); experiment: PDSP binding, α3β2; conditions: read-out: inhibition in primary assay at 10 μM
Sequence of α3β2 (P04757 26-499): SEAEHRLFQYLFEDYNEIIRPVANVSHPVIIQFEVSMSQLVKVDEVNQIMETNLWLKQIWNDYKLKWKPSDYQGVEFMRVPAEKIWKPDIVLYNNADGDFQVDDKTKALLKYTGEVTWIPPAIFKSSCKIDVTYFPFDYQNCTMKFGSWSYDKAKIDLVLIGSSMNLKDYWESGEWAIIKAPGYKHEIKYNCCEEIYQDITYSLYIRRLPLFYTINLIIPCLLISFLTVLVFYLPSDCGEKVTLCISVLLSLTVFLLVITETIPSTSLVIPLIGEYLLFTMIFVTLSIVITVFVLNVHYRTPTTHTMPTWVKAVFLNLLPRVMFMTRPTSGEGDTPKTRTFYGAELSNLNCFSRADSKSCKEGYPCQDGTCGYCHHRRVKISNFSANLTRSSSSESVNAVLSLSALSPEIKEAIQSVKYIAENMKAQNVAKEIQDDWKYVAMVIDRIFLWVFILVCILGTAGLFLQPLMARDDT
Sequence of α3β2 (P12390 25-500): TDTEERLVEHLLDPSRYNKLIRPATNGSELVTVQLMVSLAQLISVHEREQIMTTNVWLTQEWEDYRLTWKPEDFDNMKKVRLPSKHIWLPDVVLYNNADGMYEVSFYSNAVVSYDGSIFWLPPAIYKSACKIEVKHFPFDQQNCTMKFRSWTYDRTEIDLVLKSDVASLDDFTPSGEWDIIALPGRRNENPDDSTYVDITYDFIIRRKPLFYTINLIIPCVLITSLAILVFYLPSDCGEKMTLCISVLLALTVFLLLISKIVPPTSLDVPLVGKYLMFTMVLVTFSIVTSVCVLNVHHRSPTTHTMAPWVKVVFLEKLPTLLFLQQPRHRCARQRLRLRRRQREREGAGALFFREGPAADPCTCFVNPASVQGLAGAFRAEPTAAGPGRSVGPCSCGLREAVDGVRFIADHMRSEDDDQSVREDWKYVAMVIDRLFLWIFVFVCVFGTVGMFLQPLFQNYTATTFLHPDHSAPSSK

[5] = target: T1, D3R; experiment: Dopamine-mediated β-arrestin 2 recruitment assay; assay type: cell-based; conditions: DA as orthosteric ligand
[6] = target: α4β4 (Rattus norvegicus, UniProt P09483+P12392); experiment: PDSP binding, α4β4; conditions: read-out: inhibition in primary assay at 10 μM
Sequence of α4β4 (P09483 31-630): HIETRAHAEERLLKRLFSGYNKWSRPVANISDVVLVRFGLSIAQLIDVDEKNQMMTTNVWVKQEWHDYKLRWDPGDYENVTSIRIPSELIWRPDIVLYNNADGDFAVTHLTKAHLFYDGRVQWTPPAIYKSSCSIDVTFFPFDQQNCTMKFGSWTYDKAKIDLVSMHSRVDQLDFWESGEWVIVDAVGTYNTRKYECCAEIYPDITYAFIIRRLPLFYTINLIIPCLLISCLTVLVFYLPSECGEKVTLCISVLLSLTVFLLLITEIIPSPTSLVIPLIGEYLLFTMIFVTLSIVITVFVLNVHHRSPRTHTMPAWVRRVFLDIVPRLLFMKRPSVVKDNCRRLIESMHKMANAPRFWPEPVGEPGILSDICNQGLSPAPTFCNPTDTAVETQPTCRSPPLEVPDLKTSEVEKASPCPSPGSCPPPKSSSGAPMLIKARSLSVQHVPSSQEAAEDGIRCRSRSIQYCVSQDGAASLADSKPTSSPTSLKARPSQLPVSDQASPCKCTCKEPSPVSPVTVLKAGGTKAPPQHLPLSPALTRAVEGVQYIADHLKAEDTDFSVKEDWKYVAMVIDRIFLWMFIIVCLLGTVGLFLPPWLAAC
Sequence of α4β4 (P12392 21-495): as the sequence (P12392 21-495) above

[7] = target: serotonin subclass receptors; experiment: PDSP binding, serotonin subclass receptors; conditions: read-out: Ki for all of the serotonin subclass receptors
[8] = target: α2β2 (Rattus norvegicus, UniProt P12389+P12390); experiment: PDSP binding, α2β2; conditions: read-out: inhibition in primary assay at 10 μM
Sequence of α2β2 (P12389 28-511): as the sequence (P12389 28-511) above
Sequence of α2β2 (P12390 25-500): as the sequence (P12390 25-500) above

[9] = target: α3β4 (Rattus norvegicus, UniProt P04757+P12392); experiment: PDSP binding, α3β4; conditions: read-out: inhibition in primary assay at 10 μM
Sequence of α3β4 (P04757 26-499): as the sequence (P04757 26-499) above
Sequence of α3β4 (P12392 21-495): as the sequence (P12392 21-495) above

[10] = target: D2R (Homo sapiens, UniProt P14416); experiment: PDSP β-arrestin recruitment Tango assay, D2R; assay type: cell-based; conditions: Tango assays, agonist and antagonist mode
Sequence of D2R (P14416 whole entry): as the sequence (P14416 whole entry) above

[11] = target: T1, D3R; experiment: PDSP β-arrestin recruitment Tango assay, D3R; assay type: cell-based; conditions: Tango assays, agonist and antagonist mode

T1 sequence (P35462 whole entry): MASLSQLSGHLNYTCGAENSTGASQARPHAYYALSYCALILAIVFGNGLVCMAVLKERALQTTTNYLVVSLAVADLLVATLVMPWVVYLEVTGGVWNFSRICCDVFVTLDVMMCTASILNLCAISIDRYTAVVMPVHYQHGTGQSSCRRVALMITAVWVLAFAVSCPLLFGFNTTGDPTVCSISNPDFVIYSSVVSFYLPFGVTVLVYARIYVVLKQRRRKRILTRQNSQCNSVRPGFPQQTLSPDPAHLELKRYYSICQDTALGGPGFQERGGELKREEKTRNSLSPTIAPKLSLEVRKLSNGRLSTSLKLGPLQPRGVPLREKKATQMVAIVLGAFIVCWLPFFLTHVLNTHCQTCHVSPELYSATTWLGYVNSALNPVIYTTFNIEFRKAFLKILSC

Compound “3-(2-((4-Methyl-5-phenyl-4H-1,2,4-triazol-3-yl)thio)propyl)-3,9-diazaspiro[5.5]undecane [Compound 6f]” has a D2/D3 ratio [1] greater than 197.
With COc1ccccc1N1CCC2(CCNCC2)CC1 [4b] the “Ki ± SEM D2R” value [2] was 99,379 ± 11,752 nM, the D2/D3 ratio [1] was greater than 2.5 and the “Ki ± SEM D3R” value ([1]; human D3 in HEK cells, [125I]IABN, mean ± SEM, at least three experiments) was >39,319 nM.
COc1ccccc1N1CCC2(CCN(CCCSc3nnc(-c4ccccc4)n3C)CC2)CC1 [Compound 1, 3-(2-methoxyphenyl)-9-(3-((4-methyl-5-phenyl-4H-1,2,4-triazol-3-yl)thio)-propyl)-3,9-diazaspiro[5.5]undecane] was tested, and the inhibition at 10 µM [3] was less than 50%, the inhibition at 10 µM [4] was less than 50% and the “Schild plot regression slope” value [5] was “linear regression slope near unity”. The “shift of dopamine dose-response curves” value [5] was “limitless rightward shift”, the inhibition at 10 µM [6] was less than 50% and the pKi [7] was less than 6.00. For the same compound, the inhibition at 10 µM [8] was less than 50%.
With CCCCN1CCC2(CC1)CCN(c1ccccc1OC)CC2 [Compound 5a, 3-Butyl-9-(2-methoxyphenyl)-3,9-diazaspiro[5.5]undecane] the D2/D3 ratio [1] was greater than 9.6.
Compound CCCCN1CCC2(CCN(c3ccccc3OC)C2)C1 (stereo not shown) [Compound 5c, 2-Butyl-7-(2-methoxyphenyl)-2,7-diazaspiro[4.4]nonane] has a D2/D3 ratio [1] greater than 1.1.
Compound CCCSc1nnc(-c2ccccc2)n1C [Compound 6a, 4-Methyl-3-phenyl-5-(propylthio)-4H-1,2,4-triazole] has a D2/D3 ratio [1] greater than 3.6.
COc1ccccc1N1CCC2(CCN(CCCSc3nnc(-c4ccccc4)[nH]3)CC2)CC1 [Compound 17, 3-(2-Methoxyphenyl)-9-(3-((5-phenyl-4H-1,2,4-triazol-3-yl)thio)-propyl)-3,9-diazaspiro[5.5]undecane] gave a D2/D3 ratio [1] of 35.
COc1ccccc1N1CCC2(CCN(CCSc3nnc(-c4ccccc4)n3C)CC2)CC1 [Compound 20, 3-(2-Methoxyphenyl)-9-(2-((4-methyl-5-phenyl-4H-1,2,4-triazol-3-yl)thio)ethyl)-3,9-diazaspiro[5.5]undecane] showed a D2/D3 ratio [1] of 100.
COc1ccccc1N1CCN(CCCSc2nnc(-c3ccccc3)n2C)CC1 [Compound 31] showed an inhibition at 10 µM [3] of less than 50%, an inhibition at 10 µM [9] of less than 50% and an inhibition at 10 µM [4] of less than 50%. The “shift of dopamine dose-response curves” value [5] was “limitless rightward shift”, the inhibition at 10 µM [6] was less than 50% and the inhibition at 10 µM [8] was less than 50%. For the same compound, the “functional behavior at D2R” value [10] was “weak agonist/antagonist” and the “functional behavior at D3R” value [11] was “weak agonist/antagonist”.
In the case of COc1ccccc1N1CCC2(CCN(CCCSc3nnc(-c4ccccc4)n3C)C2)CC1 [Compound 34, 8-(2-Methoxyphenyl)-2-(3-((4-methyl-5-phenyl-4H-1,2,4-triazol-3-yl)thio)propyl)-2,8-diazaspiro[4.5]decane], the “increase in receptor selectivity” value ([1]; relative to 33) was 2 fold.
